Measurements published in publication PMC4267740, “Unprecedented Therapeutic Potential with a Combination of A2A/NR2B Receptor Antagonists as Observed in the 6-OHDA Lesioned Rat Model of Parkinson's Disease” (PLoS ONE, 2014).
“Also recorded” adds a separate entry of the source.

Columns and labels:
[1] = system: unilateral 6-OHDA-lesioned rats; assay: Rearing counts in actometers, monotherapy (without L-Dopa); assay type: in vivo, rat
Method: (§1) To protect norepinephrinergic neurons, animals were administered imipramine HCl (Sigma) 15 minutes before surgery. They were subsequently anesthetized with ketamine (Ceva, 75 mg/kg) and xylazine (Bayer, 10 mg/kg) and placed in stereotaxic frame (David Kopf Instrument). 6-OHDA was injected into the right ascending medial forebrain bundle at the following coordinates (in mm) relative to bregma and surface of the dura, AP = −3.5, ML = −1.5, DV = −8.7. Each rat received one injection of 6-OHDA (4 µg/µl) over a period of 5 minutes (0.5 µl/min) for a total of 10 µg per rat. Animals were monitored for 3 weeks to ensure full recovery and habituation to the environment and experimenters.
(§2) On day 21 post surgery, all rats were challenged with a small dose of subcutaneously administered apomorphine (Sigma, 0.05 mg/kg). Rats showing more than 90 contralateral rotations (360°) over a 45-minute recording period were included in the study. […] For each experiment, rats were allocated to the different experimental groups in order to get the same mean level of basal activity measured at the apomorphine challenge amongst the different experimental groups.
Drug-naïve separate rats were tested individually in clear acrylic chambers (LE8811 IR, Panlab). Locomotion was detected and measured by 16 infrared light-beam sensors located on each side of the enclosure at a height of 3 cm. Sensors were spaced such that the light beams formed a matrix of 15×15 squares over the surface. Activity counts were recorded on a computer and Acti-Track software (Actitrack, Panlab) was used to convert raw data into “distance traveled” and “rearing counts” for analysis as relevant dependent variables.
Six different combinations of A2A/NR2B antagonists were tested without L-Dopa. For each combination, there were four different procedures: vehicle only; A2A antagonist followed by vehicle; vehicle followed by the NR2B antagonist and A2A antagonist followed by the NR2B antagonist. The drugs, doses and combinations are described in Table 3. After drug administration, rats were placed in actometers (open-field) for monitoring the general level of motor activity (distance traveled and rearing counts).
Before undertaking the study, each A2A and NR2B antagonist was tested individually. The doses were selected on the basis of preliminary dose-response curves performed separately for each drug and submaximal dose (i.e. response observed is not at its maximal level) of each drug was selected for the combination studies. The two drugs were administered separately via an intraperitoneal (ip) injection with a 2-minute interval between the two drugs. Five minutes after the second injection, animals were placed in the testing cage for behavioural recording. Due to formulation and exposure issues, Tozadenant and Radiprodil had to be administered orally and therefore recording was started 60 minutes post dosing at this corresponds to maximum plasma concentrations. Eight drug-naïve animals were used for each of the four procedures; 32 in total for each combination. All behavioral experiments were conducted between 8.00 AM and 2.00 PM at the latest. Preliminary pharmacokinetic assays investigated the plasma and brain disposition of selected drugs administered alone or in combination (ie. Tozadenant/Radiprodil, and Sch-58261/Co-101244; 3 animals per group). Tozadenant and Radiprodil were measured in samples obtained 60 minutes after single oral administration at 30 mg/kg. Sch-58261 and Co-101244 were measured in samples collected 90 min after single intraperitoneal administration at 3 mg/kg.
The effects of A2A and NR2B antagonists on the level of motor activity (i.e. distance traveled and rearing counts) were assessed with three-way mixed ANOVA, combining the A2A receptor antagonist (2 levels, vehicle and the A2A drug) and the NR2B antagonist (2 levels, vehicle and the NR2B drug) as between-group factors with the time as within-subjects factor (6 or 9 levels). […]

[2] = system: unilateral 6-OHDA-lesioned rats; assay: L-Dopa-induced contralateral rotations in rotometers, add-on therapy; assay type: in vivo, rat; conditions: add-on to L-Dopa 25 mg/kg ip; for Contralateral rotations, drugs alone vs vehicle, time for which significant: 10-min intervals, 120 min recording; for Time for which the drug given separately was active in increasing or prolonging the L-Dopa effect on contralateral rotations: each given separately
Method: as §1, §2
The rats tested one week earlier for general activity (actometers) were once again placed in clear acrylic individual chambers (50×45 cm) with the same treatment (drug and dose) than that previously received plus L-Dopa. Eight chambers were placed on a level, clear glass bottom, held by a robust frame, and were subdivided into four individual test cages of 25×22 cm. A removable acrylic plate served as a lid.
Rotational behaviour was recorded using a home-made computerized system. Rats were fixed in a harness and linked to mechanical sensors connected directly to a computer. Each 360° clock-wise or counter clock-wise turn was automatically recorded for up to 120 minutes at the maximum. Throughout the experiments, rats were allocated to individual test cages.
Four different combinations were administered as add-on treatment to a low active dose of L-Dopa (25 mg/kg, ip) without any dopa decarboxylase inhibitor to avoid any additional pharmacokinetic interaction. The doses of the compounds were selected on the basis of preliminary dose-response curves performed separately for each drug. To avoid ceiling effect with L-Dopa, only submaximal doses of each drug were selected for testing (as it was done previously for monotherapy). Eight L-Dopa naïve animals were tested for each of the four pharmacological condition: vehicle and L-Dopa (25 mg/kg); A2A antagonist followed by vehicle and L-Dopa; vehicle followed by NR2B antagonist and L-Dopa; A2A antagonist followed by NR2B and L-Dopa. Due to the dominance of the L-Dopa-effect on the lesioned striatum, the unilateral 6-OHDA-lesioned rats rotated after the drugs administration and behavioral activity was recorded in rotometers (i.e. level of contralateral rotations).
All drugs were administered i.p. 25 minutes before behavioural recording, except for the Tozadenant and Radiprodil combination which was administered orally 60 minutes before behavioural recording. As Radiprodil was administered orally, L-Dopa was given 45 minutes after the Radiprodil injection whereas for the other combinations L-Dopa was given 15 minutes after the NR2B drug. The drugs, the doses and the combinations given in co-administration to L-Dopa are described in Table 4 .
The impact of treatment with A2A or NR2B receptor antagonists, given alone or in combination, on the effect of L-Dopa on contralateral rotations was also analysed with a three-way mixed ANOVA. The ANOVA included the A2A and the NR2B receptor antagonists (both, 2 levels, vehicle and the drug) as between-group factors combined with time (12 levels) as within-subjects factor. […] The ability of the combination to increase and prolong the activity of L-Dopa was also explored. Consequently, drug effects were analyzed for every 10-min time interval. […]

[3] = Preladenant 0.1 mg/kg ip, Radiprodil 1 mg/kg ip
[4] = Tozadenant 30 mg/kg po, Radiprodil 3 mg/kg po
[5] = Preladenant 0.03 mg/kg ip, Radiprodil 0.3 mg/kg ip
[6] = Sch-58261 1 mg/kg ip, Co-101244 1 mg/kg ip
[7] = Sch-58261 1 mg/kg ip, Merck 22 1 mg/kg ip
[8] = Sch-58261 0.3 mg/kg ip, Co-101244 1 mg/kg ip

SMILES | Rearing counts, drugs alone vs vehicle, p (Newman-Keuls) [1, 4] | Rearing counts, drugs main effect, p (three-way mixed ANOVA) [1, 4] | Rearing counts, drugs × time effect, p (three-way mixed ANOVA) [1, 4] | Contralateral rotations, drugs alone vs vehicle, p (planned contrasts on each 10-min interval) [2, 4] | Contralateral rotations, drugs main effect, p (three-way mixed ANOVA) [2, 4] | Contralateral rotations, drugs × time effect, p (three-way mixed ANOVA) [2, 4] | Contralateral rotations, drugs alone vs vehicle, time for which significant [2, 4] | Time for which the drug given separately was active in increasing or prolonging the L-Dopa effect on contralateral rotations [2, 4] [min] | further results
O=C(Nc1ccc2[nH]c(=O)oc2c1)C(=O)N1CCC(Cc2ccc(F)cc2)CC1 [Radiprodil] | Not significant | p<0.01 | p<0.001 | < 0.05 | p<0.01 | p<0.001 | 20 ′ | 20 | Rearing counts, drugs alone vs vehicle, p (Newman-Keuls) [1, 3]: Radiprodil, not significant; Rearing counts, drugs main effect, p (three-way mixed ANOVA) [1, 3]: p<0.001; Rearing counts, drugs × time effect, p (three-way mixed ANOVA) [1, 3]: p<0.01; Rearing counts, drug alone in comparison to vehicle rats ([1]; drug administered alone): not; Contralateral rotations, drugs alone vs vehicle, p (planned contrasts on each 10-min interval) [2, 5]: Not significant; Contralateral rotations, drugs main effect, p (three-way mixed ANOVA) [2, 5]: Not significant; Contralateral rotations, drugs × time effect, p (three-way mixed ANOVA) [2, 5]: p<0.01
Nc1nc2c(cnn2CCc2ccccc2)c2nc(-c3ccco3)nn12 [Sch-58261] | – | – | – | – | – | – | – | – | Rearing counts, drugs alone vs vehicle, p (Newman-Keuls) [1, 6]: Both p<0.05; Rearing counts, drugs main effect, p (three-way mixed ANOVA) [1, 6]: p<0.001; Rearing counts, drugs × time effect, p (three-way mixed ANOVA) [1, 6]: p<0.001; Rearing counts, drugs alone vs vehicle, p (Newman-Keuls) [1, 7]: Sch-58261 p<0.05; Rearing counts, drugs main effect, p (three-way mixed ANOVA) [1, 7]: p<0.001; Rearing counts, drugs × time effect, p (three-way mixed ANOVA) [1, 7]: p<0.001; Contralateral rotations, drugs main effect, p (three-way mixed ANOVA) [2, 8]: p<0.05; Contralateral rotations, drugs × time effect, p (three-way mixed ANOVA) [2, 8]: p<0.001
COc1ccc(N2CCOCC2)c2sc(NC(=O)N3CCC(C)(O)CC3)nc12 [Tozadenant] | exception; also recorded: Not significant | p<0.01 | p<0.001 | < 0.05 | p<0.001 | p<0.001 | 80 ′ | 80 | –
